Test results taken from patent publication US12612407B2, “Imidazo[2,1-f][1,2,4]triazin-4-amine derivatives as TLR7 agonist” (BEIGENE, LTD., priority 2020, dated 2026).

Molecular target: T1, human TLR7 (Homo sapiens, UniProt Q9NYK1)
T1 construct: host or cells: HEK293 (HEK-Blue hTLR7)
T1 sequence (Q9NYK1 27-1049): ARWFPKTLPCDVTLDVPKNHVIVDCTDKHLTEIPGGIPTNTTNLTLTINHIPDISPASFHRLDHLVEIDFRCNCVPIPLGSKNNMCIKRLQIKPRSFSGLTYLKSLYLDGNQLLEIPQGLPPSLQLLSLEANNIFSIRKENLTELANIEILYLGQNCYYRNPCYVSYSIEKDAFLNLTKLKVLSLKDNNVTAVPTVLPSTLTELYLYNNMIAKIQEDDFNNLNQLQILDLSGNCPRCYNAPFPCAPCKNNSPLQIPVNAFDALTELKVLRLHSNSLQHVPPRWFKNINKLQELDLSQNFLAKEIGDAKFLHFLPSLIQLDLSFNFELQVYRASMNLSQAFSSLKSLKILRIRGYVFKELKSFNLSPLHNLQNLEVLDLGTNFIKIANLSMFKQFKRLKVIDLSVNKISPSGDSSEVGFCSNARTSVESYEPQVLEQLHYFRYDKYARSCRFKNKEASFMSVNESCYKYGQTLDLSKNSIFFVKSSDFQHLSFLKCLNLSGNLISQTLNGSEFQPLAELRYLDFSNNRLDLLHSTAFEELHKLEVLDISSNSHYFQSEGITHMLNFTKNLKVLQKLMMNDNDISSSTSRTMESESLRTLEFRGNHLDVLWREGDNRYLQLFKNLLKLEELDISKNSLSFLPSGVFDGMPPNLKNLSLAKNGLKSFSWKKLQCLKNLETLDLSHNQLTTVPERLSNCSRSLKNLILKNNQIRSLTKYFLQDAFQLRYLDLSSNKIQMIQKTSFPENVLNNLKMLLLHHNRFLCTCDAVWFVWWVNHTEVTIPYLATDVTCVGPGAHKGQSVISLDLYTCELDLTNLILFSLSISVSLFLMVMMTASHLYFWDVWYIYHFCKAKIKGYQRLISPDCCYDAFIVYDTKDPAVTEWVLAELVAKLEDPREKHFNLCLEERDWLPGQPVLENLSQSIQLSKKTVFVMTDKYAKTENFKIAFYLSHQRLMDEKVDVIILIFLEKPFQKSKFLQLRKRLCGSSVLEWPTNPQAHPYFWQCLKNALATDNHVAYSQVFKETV
Test: HEK293-Blue hTLR7 Reporter Assay (QUANTI-BLUE, SEAP readout)
Assay type: cell-based
Details: HEK-Blue-hTLR7 cells, 24 hrs treatment, Table 1, B1-B232
Method in brief: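 HEK-Blue-hTLR7 cells expressing NF-κB/AP-1-driven SEAP, 4×10^4 cells/well, treated 24 h at 37° C with increasing compound concentrations. Supernatant SEAP measured with Quanti-blue substrate (10-30 min, 37° C) at 620-655 nm; EC50 from sigmoidal dose-response fit.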

SMILES | EC50
CCCCOc1nc(N)c2ncc(Cc3cnc(N4CCC5(CCNCC5)C4)c(C)c3)n2n1 [Compound B101, 2-butoxy-7-((5-methyl-6-(2,8-diazaspiro[4.5]decan-2-yl)pyridin-3-yl)methyl)imidazo[2,1-f][1,2,4]triazin-4-amine] | 0.425 µM
CCCCOc1nc(N)c2ncc(Cc3cnc(N4CC5(CCNCC5)C4)c(C)c3)n2n1 [Compound B102, 2-butoxy-7-((5-methyl-6-(2,7-diazaspiro[3.5]nonan-2-yl)pyridin-3-yl)methyl)imidazo[2,1-f][1,2,4]triazin-4-amine] | 0.464 µM
CCCCOc1nc(N)c2ncc(Cc3cnc(N4CCC(OC)CC4)c(C)c3)n2n1 [Compound B103, 2-butoxy-7-((6-(4-methoxypiperidin-1-yl)-5-methylpyridin-3-yl)methyl)imidazo[2,1-f][1,2,4]triazin-4-amine] | 7.96 µM
CCCCOc1nc(N)c2ncc(Cc3cnc(N4CCC(COC)CC4)c(C)c3)n2n1 [Compound B104, 2-butoxy-7-((6-(4-(methoxymethyl)piperidin-1-yl)-5-methylpyridin-3-yl)methyl)imidazo[2,1-f][1,2,4]triazin-4-amine] | > 10 µM
CCCCOc1nc(N)c2ncc(Cc3cnc(N4CCC(CN(C)C)C4)c(C)c3)n2n1 (stereo not drawn) [Compound B105, 2-butoxy-7-((6-(3-((dimethylamino)methyl)pyrrolidin-1-yl)-5-methylpyridin-3-yl)methyl)imidazo[2,1-f][1,2,4]triazin-4-amine] | 0.177 µM
CCCCOc1nc(N)c2ncc(Cc3cnc(N4CCC(CNC)CC4)c(C)c3)n2n1 [Compound B106, 2-butoxy-7-((5-methyl-6-(4-((methylamino)methyl)piperidin-1-yl)pyridine-3-yl)methyl)imidazo[2,1-f][1,2,4]triazin-4-amine] | 0.071 µM
CCCCOc1nc(N)c2ncc(Cc3cnc(N4CCN(CCOC)CC4)c(C)c3)n2n1 [Compound B107, 2-butoxy-7-((6-(4-(2-methoxyethyl)piperazin-1-yl)-5-methylpyridin-3-yl)methyl)imidazo[2,1-f][1,2,4]triazin-4-amine] | 0.185 µM
CCCCOc1nc(N)c2ncc(Cc3cnc(N4CCC(N5CCOCC5)CC4)c(C)c3)n2n1 [Compound B108, 2-butoxy-7-((5-methyl-6-(4-morpholinopiperidin-1-yl)pyridine-3-yl)methyl)imidazo[2,1-f][1,2,4]triazin-4-amine] | 0.159 µM
CCCCOc1nc(N)c2ncc(Cc3cnc(N4CCC(CN5CCOCC5)CC4)c(C)c3)n2n1 [Compound B109, 2-butoxy-7-((5-methyl-6-(4-(morpholinomethyl)piperidin-1-yl)pyridin-3-yl)methyl)imidazo[2,1-f][1,2,4]triazin-4-amine] | 0.161 µM
CCCCOc1nc(N)c2ncc(Cc3cnc(N4CCC(CCN(C)C)CC4)c(C)c3)n2n1 [Compound B110, 2-butoxy-7-((6-(4-(2-(dimethylamino)ethyl)piperidin-1-yl)-5-methylpyridin-3-yl)methyl)imidazo[2,1-f][1,2,4]triazin-4-amine] | 0.043 µM
CCCC(C)Oc1nc(N)c2ncc(Cc3cnc(N4CCN(C(=O)CNC)CC4)c(C)c3)n2n1 (stereo not drawn) [Compound B111, 1-(4-(5-((4-amino-2-(pentan-2-yloxy)imidazo[2,1-f][1,2,4]triazin-7-yl)methyl)-3-methylpyridin-2-yl)piperazin-1-yl)-2-(methylamino)ethan-1-one] | 0.0098 µM
CCC(C)Oc1nc(N)c2ncc(Cc3cnc(N4CCNCC4)c(C)c3)n2n1 (stereo not drawn) [Compound B112, 2-(sec-butoxy)-7-((5-methyl-6-(piperazin-1-yl)pyridin-3-yl)methyl)imidazo[2,1-f][1,2,4]triazin-4-amine] | 0.037 µM
CCC(C)COc1nc(N)c2ncc(Cc3cnc(N4CCNCC4)c(C)c3)n2n1 (stereo not drawn) [Compound B113, 7-((5-methyl-6-(piperazin-1-yl)pyridin-3-yl)methyl)-2-(2-methylbutoxy)imidazo[2,1-f][1,2,4]triazin-4-amine] | 0.447 µM
CCCCOc1nc(N)c2ncc(Cc3cnc(N4CCN(CC)CC4)c(C)c3)n2n1 [Compound B114, 2-butoxy-7-((6-(4-ethylpiperazin-1-yl)-5-methylpyridin-3-yl)methyl)imidazo[2,1-f][1,2,4]triazin-4-amine] | 0.168 µM
CCCCOc1nc(N)c2ncc(Cc3cnc(N4CCN(CCc5ccccc5)CC4)c(C)c3)n2n1 [Compound B116, 2-butoxy-7-((5-methyl-6-(4-phenethylpiperazin-1-yl)pyridin-3-yl)methyl)imidazo[2,1-f][1,2,4]triazin-4-amine] | 1.19 µM
CCC[C@@H](C)Oc1nc(N)c2ncc(Cc3cnc(N4CCNCC4)c(C)c3)n2n1 [Compound B117, (R)-7-((5-methyl-6-(piperazin-1-yl)pyridin-3-yl)methyl)-2-(pentan-2-yloxy)imidazo[2,1-f][1,2,4]triazin-4-amine] | 0.062 µM
COCCOCCOc1nc(N)c2ncc(Cc3cnc(N4CCNCC4)c(C)c3)n2n1 [Compound B119, 2-(2-(2-methoxyethoxy)ethoxy)-7-((5-methyl-6-(piperazin-1-yl)pyridin-3-yl)methyl)imidazo[2,1-f][1,2,4]triazin-4-amine] | > 10 µM
COCCOCCOCCOCCOCCOCCOc1nc(N)c2ncc(Cc3cnc(N4CCNCC4)c(C)c3)n2n1 [Compound B120, 2-((2,5,8,11,14,17-hexaoxanonadecan-19-yl)oxy)-7-((5-methyl-6-(piperazin-1-yl)pyridin-3-yl)methyl)imidazo[2,1-f][1,2,4]triazin-4-amine] | > 10 µM
CCCCOc1nc(N)c2ncc(Cc3cnc(N4CCC(CN5CCCC5)CC4)c(C)c3)n2n1 [Compound B121, 2-butoxy-7-((5-methyl-6-(4-(pyrrolidin-1-ylmethyl)piperidin-1-yl)pyridin-3-yl)methyl)imidazo[2,1-f][1,2,4]triazin-4-amine] | 0.031 µM
CCC[C@@H](C)Oc1nc(N)c2ncc(Cc3cnc(N4CCN(C(=O)CN(C)C)CC4)c(C)c3)n2n1 [Compound B124, (R)-1-(4-(5-((4-amino-2-(pentan-2-yloxy)imidazo[2,1-f][1,2,4]triazin-7-yl)methyl)-3-methylpyridin-2-yl)piperazin-1-yl)-2-(dimethylamino)ethan-1-one] | 0.051 µM
CCC[C@H](C)Oc1nc(N)c2ncc(Cc3cnc(N4CCN(C(=O)CN(C)C)CC4)c(C)c3)n2n1 [Compound B125, (S)-1-(4-(5-((4-amino-2-(pentan-2-yloxy)imidazo[2,1-f][1,2,4]triazin-7-yl)methyl)-3-methylpyridin-2-yl)piperazin-1-yl)-2-(dimethylamino)ethan-1-one] | 0.0025 µM
CCCCOc1nc(N)c2ncc(Cc3cnc(N4CCC(CN(CC)CC)CC4)c(C)c3)n2n1 [Compound B126, 2-butoxy-7-((6-(4-((diethylamino)methyl)piperidin-1-yl)-5-methylpyridin-3-yl)methyl)imidazo[2,1-f][1,2,4]triazin-4-amine] | 0.022 µM
CCC[C@@H](C)Oc1nc(N)c2ncc(Cc3cnc(N4CCC(N(C)C)CC4)c(C)c3)n2n1 [Compound B127, (R)-7-((6-(4-(dimethylamino)piperidin-1-yl)-5-methylpyridin-3-yl)methyl)-2-(pentan-2-yloxy)imidazo[2,1-f][1,2,4]triazin-4-amine] | 0.056 µM
CCC[C@@H](C)Oc1nc(N)c2ncc(Cc3cnc(N4CCC(CN(C)C)CC4)c(C)c3)n2n1 [Compound B128, (R)-7-((6-(4-((dimethylamino)methyl)piperidin-1-yl)-5-methylpyridin-3-yl)methyl)-2-(pentan-2-yloxy)imidazo[2,1-f][1,2,4]triazin-4-amine] | 0.041 µM
CCCCCCCCCCCCCCCCCC(=O)N1CCN(c2ncc(Cc3cnc4c(N)nc(OCCCC)nn34)cc2C)CC1 [Compound B129, 1-(4-(5-((4-amino-2-butoxyimidazo[2,1-f][1,2,4]triazin-7-yl)methyl)-3-methylpyridin-2-yl)piperazin-1-yl)octadecan-1-one] | > 10 µM
CCCCOc1nc(N)c2ncc(Cc3cnc(N4CCC(N5CCN(C)CC5)CC4)c(C)c3)n2n1 [Compound B130, 2-butoxy-7-((5-methyl-6-(4-(4-methylpiperazin-1-yl)piperidin-1-yl)pyridin-3-yl)methyl)imidazo[2,1-f][1,2,4]triazin-4-amine] | 0.038 µM
CCCCOc1nc(N)c2ncc(Cc3cnc(N4CCC5(CCNCC5)CC4)c(C)c3)n2n1 [Compound B131, 2-butoxy-7-((5-methyl-6-(3,9-diazaspiro[5.5]undecan-3-yl)pyridin-3-yl)methyl)imidazo[2,1-f][1,2,4]triazin-4-amine] | 0.098 µM
